Each structure is given as a SMILES string.

The results in this text go back to patent publication US8003083B2, “Benzylidene malonamide and salt thereof, ultraviolet ray absorbent, and agent for external application to the skin” (Shiseido Company, Ltd., priority 2006, dated 2011).

The nature of data set [1]: Ultraviolet absorption spectrum measurement. The class given is physicochemical. The settings on record: solvent water, concentration 10 ppm, optical path length 1 cm, FIG. 1. The protocol: An ultraviolet absorption spectrum of the benzilidene malonamide obtained in Example 1 was measured (solvent: water, concentration 10 ppm, optical path length 1 cm) by using a spectrophotometer (V-560 from Jasco Co. Ltd.).

A short description of data set [2]: 405 nm visible light absorbance measurement. The class given is physicochemical. The settings on record: water, optical path length 1 cm. The protocol: For a Comparative example, sodium 2-hydroxy-4-methoxy-5-sulfoquisonium benzophenone, a conventional water soluble ultraviolet absorbent, was measured in the same manner.
A short description of a further data set: Solubility in water. It counts as physicochemical. The protocol:
Solubility in water was measured for the benzilidene malonamide of the present invention. For a Comparative example, sodium 2-hydroxy-4-methoxy-5-sulfoquisonium benzophenone was measured in the same manner.

The test system of data set [3] is degree of sunburn after exposure to direct sunlight. The data set is described as follows: Ultraviolet prevention effect, actual use test on a beach in summer. It counts as in vivo, human. The protocol: An actual use test was conducted on a beach in summer. The same amount of sample was applied on the left and right halves of panelists' backs. The degree of sunburn after exposure to direct sunlight was evaluated based on the following criteria. The test was conducted with a group of 10 panelists.
Very effective: No or very little sunburn symptoms were observed.
Effective: A mild degree of sunburn symptoms were observed.
Not effective: A strong degree of sunburn symptoms were observed.
⊚: 80% or more of the subjects report “very effective” or “effective.”
◯: 50% or more and less than 80% of the subjects report “very effective” or “effective.”
∇: 30% or more and less than 50% of the subjects report “very effective” or “effective.”
X: Less than 30% of the subjects report “very effective” or “effective.”
(§1) (a) lotion and (b) cream were prepared according to the following recipes. For the ultraviolet absorbent, benzilidene malonamide (bis-N,N′-[2-(2-hydroxyethoxy)ethyl]-4-methoxybenzilidene malonamide) of the present invention and, as a Comparison example, a water soluble ultraviolet absorbent sodium 2-hydroxy-4-methoxy-5-sulfoquisonium benzophenone were used.
(§2) The water phase and the alcohol phase were separately prepared and then mixed together.
(§3) Propylene glycol and the ultraviolet absorbent were dissolved in ion-exchanged water and the temperature was raised to 70° C. and maintained. The other ingredients were mixed, heated and melted, and the temperature was maintained at 70° C. (oil phase). The oil phase was added to the water phase and pre-emulsification was conducted; after a homomixer was used to emulsify the mixture homogeneously, the temperature was cooled down to 30° C. while thorough stirring was maintained.

A short description of data set [4]: External appearance and low temperature storage of lotion and cream samples. It counts as physicochemical. The protocol: as §1, §2, §3
Data set [5] relates to flexor forearm skin of healthy male and female volunteers. The data set is described as follows: Skin irritability test, 24-hour closed patch test. The following applies: ultraviolet absorbent 10 wt %, 20 volunteers. It counts as in vivo, human. The protocol: This test was conducted by using the same sample as in Test example 4 (blend ratio of the ultraviolet absorbent was 10 wt %).
A Finn chamber was used to conduct the 24-hour closed patch test on the flexor forearm of healthy male and female volunteers; a group of 20 volunteers were used and the following evaluation criteria were used.
The average score was calculated and the evaluation was done based on the following criteria.
⊚: The average score is 0.
◯: The average score is more than 0 and less than 1.
Δ: The average score is 1 or more and less than 2.
X: The average score is 2 or more.

The nature of data set [6]: Photostability test, sunlight exposure. The class given is physicochemical. The settings on record: 80 MJ/m^2. The protocol:
A solution of the ultraviolet absorbent of the present invention was exposed to sunlight for two weeks (sunlight exposure level 80 MJ/m^2) and then the residual ratio and changes in the appearance were investigated and the ultraviolet absorption spectrum was measured (solvent: water, concentration 10 ppm, optical path length 1 cm) by using a spectrophotometer; the ultraviolet absorption spectrum was integrated over a range of 290-400 nm to obtain the area value, which was compared with the value before the sunlight exposure.
Changes in the residual ratio and the area value of the ultraviolet absorption spectrum were evaluated based on the following criteria.
Δ: 70% or more and less than 90% of the value before the sunlight exposure.
X: Less than 70% of the value before the sunlight exposure.

Data set [7] is described as follows: Stability test for use in combination with an inorganic powder ultraviolet shielding agent. It counts as physicochemical. The following applies: sunscreen cream with inorganic powders, ultraviolet absorbent 10.0 wt %, stored at 50° C. for two months, visual.
Protocol: Sunscreen cream was prepared according to the following recipe; it was stored at 50° C. for two months and visually observed for discoloration to investigate the stability when used in combination with an inorganic powder ultraviolet shielding agent.

As for `COc1ccc(C=C(C(=O)NCCOCCO)C(=O)NCCOCCO)cc1` [Benzilidene malonamide of formula (1), bis-N,N′-[2-(2-hydroxyethoxy)ethyl]-4-methoxybenzilidene malonamide], the “Ultraviolet absorption spectrum (absorption capacity)” value in data set [1] is reported as “superior absorption capacity over a wide ultraviolet wavelength region”. In data set [2] (concentration 10 wt %), this molecule displayed an Absorbance of 0. Further, the “Solubility (room temperature)” value in “Solubility in water” is 30 or more wt %. Also, the Ultraviolet prevention effect entry in data set [3] ((a) Lotion, blend ratio 1, 10 panelists) is given as “⊚ (80% or more of the subjects report “very effective” or “effective.”)”; in data set [3] ((a) Lotion, blend ratio 5, 10 panelists), “⊚ (80% or more of the subjects report “very effective” or “effective.”)”; in data set [3] ((a) Lotion, blend ratio 10, 10 panelists), “⊚ (80% or more of the subjects report “very effective” or “effective.”)”; in data set [3] ((b) Cream, blend ratio 1, 10 panelists), “⊚ (80% or more of the subjects report “very effective” or “effective.”)”; in data set [3] ((b) Cream, blend ratio 5, 10 panelists) it was “⊚ (80% or more of the subjects report “very effective” or “effective.”)”; in data set [3] ((b) Cream, blend ratio 10, 10 panelists), “⊚ (80% or more of the subjects report “very effective” or “effective.”)”. Further, the External appearance result in data set [4] ((b) Cream, blend ratio 1) is given as “White”; in data set [4] ((b) Cream, blend ratio 5) it was “White”; in data set [4] ((b) Cream, blend ratio 10), “White”. The “Precipitation during low temperature storage” value in data set [4] (external preparations of Tables 3 and 4 (lotion and cream)) was “no precipitation of the ultraviolet absorbent was observed at all”. The “Skin irritability patch test evaluation (average score)” value in data set [5] (Cream) and in data set [5] (Lotion) was “⊚ (The average score is 0.)” in each case. For the same molecule, in data set [6] (290-400 nm integrated, after sunlight for two weeks, water, 10 ppm, 1 cm), the “Changes in the area value of the ultraviolet absorption spectrum” value is “⊚ (95% or more of the value before the sunlight exposure.)”. For the same molecule, in data set [6] (solution exposed to sunlight for two weeks), the Residual ratio result is recorded as “⊚ (95% or more of the value before the sunlight exposure.)”. Further, in data set [7], the Discoloration entry is on record as “None”.
With `COc1cc(O)c(C(=O)c2ccccc2)cc1S(=O)(=O)[O-].[Na+]` [sodium 2-hydroxy-4-methoxy-5-sulfoxonium benzophenone, reference compound], the Absorbance in data set [2] (concentration 0.1 wt %) was found to be 0.06; in data set [2] (concentration 1 wt %) it was 0.32; in data set [2] (concentration 6 wt %), 1.99. The “Precipitation during low temperature storage” value in data set [4] ((a) Lotion, blend ratio 5) was “**Crystals precipitated during low temperature storage”; in data set [4] ((b) Cream, blend ratio 5), “**Crystals precipitated during low temperature storage”. In addition, the External appearance result was “Yellow” in data set [4] ((b) Cream, blend ratio 1) and “Yellow**” in data set [4] ((b) Cream, blend ratio 5).
